Patent publication US20180071354A1, “SELECTIVE BREEDING METHOD OF ANTITUMOR/ANTICANCER CAMELLIA SINENSIS STRAIN, AND TEA PRODUCT OF SUCH STRAIN” (FUJIAN AGRICULTURE AND FORESTRY UNIVERSITY, priority 2015, published 2018)

Columns and labels:
[1] = In vitro antitumor/anticancer testing (CCK-8), SMMC-7721; assay type: cell-based, human; conditions: SMMC-7721; 48 h
Procedure: (§1) Each of Tea Product 1 and Conventional Tea Product obtained in section A of this example was used to prepare test tea samples according to the method described below. A proper amount of the respective tea product was added into sterile water to prepare a stock solution with a concentration of 100 mg/mL, followed by using a membrane filter with a pore size of 0.22 μm to conduct vacuum filtration and sterilization. The resulting stock solution was diluted with a respective complete medium shown in Table 3 below to form test tea samples with different concentrations. In other words, the thus obtained test tea samples to be used for treating a respective cancer/tumor cell line shown in Table 3 were prepared using the same complete medium as that for the respective cancer/tumor cell line. […] Specifically, each of the aforesaid commercially available agents was subjected to the method described below to prepare comparative test samples. A proper amount of a respective commercially available agent was dissolved in phosphate-buffered saline (PBS) to prepare a stock solution with a concentration of 5 mg/mL, followed by using a membrane filter with a pore size of 0.22 μm to conduct vacuum filtration and sterilization. The resulting stock solution was diluted with a respective complete medium shown in Table 3 below to form comparative test samples with different concentrations. To be specific, the comparative test samples prepared from the respective commercially available agent have the concentrations shown in Table 2 below. The thus obtained comparative test samples to be used for treating a respective cancer/tumor cell line shown in Table 3 were prepared using the same complete medium as that for the respective cancer/tumor cell line. […] The cultivation of each cancer/tumor cell line is described as follows. […] Afterwards, a cell suspension having a cell density of 1.0×10^4 cells/mL was prepared. […] As experimental groups, the tumor/cancer cells of each cell line were treated with the test tea samples prepared from one or more of the tea products and the comparative test samples prepared from one or more of the commercially available agents as obtained in section B of this example (for more detailed information about the tea product(s) and the commercially available product (s) used to treat each cell line, please see Table 4 below). To be specific, 6 to 10 test tea samples prepared from the same tea product and having different concentrations, as well as 6 to 10 comparative test samples prepared from the same commercially available agent and having different concentrations, were utilized to treat the tumor/cancer cells of each cell line. For each experimental group, 6 repetitions of tumor/cancer treatment were performed. For the control group, 100 μL of PBS was added to a well containing the medium and the cancer/tumor cells of the respective cell line. For the blank group, 100 μL of PBS was added to a well containing a complete medium the same as that used for cultivation of the cancer/tumor cells of the respective cell line. After the treatment described above, cultivation was conducted in an incubator (37° C., 100% relative humidity, 5% CO2) for 48 hours. Subsequently, the liquid containing the medium and the sample in the well was removed, and a respective complete medium (shown in Table 3 above) containing 10% CCK-8 (Cell Counting Kit-8)(Dojindo Molecular Technologies, Inc., Cat. No. CK04-13) was added. Cultivation was performed in an incubator (37° C.) for 2 to 4 hours, followed by gently shaking.

[2] = system: human ovarian cancer cell line SK-OV-3; assay: In vitro antitumor/anticancer testing (CCK-8), SK-OV-3; assay type: cell-based; conditions: 48 h
Procedure: as §1

[3] = system: human lung cancer cell line A549; assay: In vitro antitumor/anticancer testing (CCK-8), A549; assay type: cell-based; conditions: 48 h
Procedure: as §1

[4] = system: human mammary gland/duct cancer cell line BT-474; assay: In vitro antitumor/anticancer testing (CCK-8), BT-474; assay type: cell-based; conditions: 48 h
Procedure: as §1

[5] = system: HepG2 cells (human liver cancer cells) transplanted tumor; assay: In vivo antitumor testing, first experiment (Animal Model 1); design: species or system BALB/c nude mice; conditions: 35 days, 5-fluorouracil 15.0 mg/kg per day intra-abdominal injection, Tea Product 1 0.6 mL of 10% per day intragastric gavage
Procedure: The establishment of Animal Model 1 is addressed as follows. […] SCXK (Hu) 2012-0002) were purchased from Shanghai Silaike Experiment Animal Co., Ltd and were acclimatized for one week. HepG2 cells (human liver cancer cells) mentioned in section C of Example 3 were cultivated in the corresponding complete medium (see Table 3) supplemented with 100 μg/mL penicillin and 100 μg/mL streptomycin in an incubator (37° C., 100% relative humidity, 5% CO2). When adherent cancer/tumor cells reached 97% confluence, the medium was removed. Cell detachment was conducted using trypsin, and the detached cells were transferred to a centrifuge tube. Centrifugation was conducted, and the resulting supernatant was removed. Staining was performed with a 0.4% trypan blue, and it was determined that the cell viability was higher than 97%. A cell suspension having a concentration of […] was prepared using PBS. 0.2 mL of the cell suspension was subcutaneously injected into each of the nude mice at a position posterior to the axilla. […] Tea Product 1 and Conventional Tea Product obtained in section A of Example 3, as well as 5-fluorouracil mentioned in section B of Example 3, were examined for their in vivo antitumor activity. […] In all the three experiments above, each of the nude mice was sacrificed 24 hours after the termination of the treatment. The tumor was collected and weighed. The antitumor effect of a respective test substance was evaluated by virtue of the percent tumor growth inhibition (%), which was calculated using the following Equation II: E=[(F−G)/(F)]×100% (I) • E=percent tumor growth inhibition (%) • F=tumor weight of control group • G=tumor weight of respective test substance group The experimental data are expressed as mean±SEM (standard error of the mean). The experimental data were subjected to one-way analysis of variance (ANOVA) using SPSS (Statistical Package for Social Sciences) software package version 11.5, such that the difference between the groups could be evaluated. The data regarding the tumor weights of the groups were subjected to t-test. […]

Structure (SMILES): O=C(O[C@@H]1Cc2c(O)cc(O)cc2O[C@@H]1c1cc(O)c(O)c(O)c1)c1cc(O)c(O)c(O)c1 [EGCG monomer, epigallocatechin gallate]
- IC50 [1]: IC50 (μg/mL) = 77.41
- Percent growth inhibition ([2]; 0.3125 μg/mL): 2.20%
- Percent growth inhibition ([2]; 0.625 μg/mL): 3.98%
- Percent growth inhibition ([2]; 1.25 μg/mL): 3.64%
- Percent growth inhibition ([2]; 2.5 μg/mL): 5.54%
- Percent growth inhibition ([2]; 5 μg/mL): 6.15%
- Percent growth inhibition ([2]; 10 μg/mL): 4.47%
- Percent growth inhibition ([2]; 20 μg/mL): 36.88%
- Percent growth inhibition ([2]; 40 μg/mL): 81.73%
- Percent growth inhibition ([2]; 80 μg/mL): 99.42%
- IC50 ([2]; SK-OV-3): IC50 (μg/mL) = 24.05
- Percent growth inhibition ([3]; 0.625 μg/mL): 6.69%
- Percent growth inhibition ([3]; 1.25 μg/mL): 5.92%
- Percent growth inhibition ([3]; 2.5 μg/mL): 7.35%
- Percent growth inhibition ([3]; 5 μg/mL): 6.76%
- Percent growth inhibition ([3]; 10 μg/mL): 9.62%
- Percent growth inhibition ([3]; 20 μg/mL): 23.21%
- Percent growth inhibition ([3]; 40 μg/mL): 35.39%
- Percent growth inhibition ([3]; 80 μg/mL): 60.18%
- IC50 ([3]; A549): IC50 (μg/mL) = 59.74
- Percent growth inhibition ([4]; 2.5 μg/mL): 6.51%
- Percent growth inhibition ([4]; 5 μg/mL): 2.62%
- Percent growth inhibition ([4]; 10 μg/mL): −2.75%
- Percent growth inhibition ([4]; 20 μg/mL): −6.45%
- Percent growth inhibition ([4]; 40 μg/mL): −20.61%
- Percent growth inhibition ([4]; 80 μg/mL): 57.40%
- Percent growth inhibition ([4]; 160 μg/mL): 96.45%
- Percent growth inhibition ([4]; 320 μg/mL): 97.46%
- Percent growth inhibition ([4]; 640 μg/mL): 97.03%
- IC50 ([4]; BT-474): IC50 (μg/mL) = 74.75

Structure (SMILES): O=c1[nH]cc(F)c(=O)[nH]1 [5-fluorouracil]
- Body weight After treatment [5]: 72.90 g
- Percent tumor growth inhibition [5]: 80.84%
- Tumor weight [5]: 0.08 g
